Experimental data as given in article PMC11110727, “Exploiting thiol-functionalized benzosiloxaboroles for achieving diverse substitution patterns – synthesis, characterization and biological evaluation of promising antibacterial agents” (RSC Medicinal Chemistry, 2024).
Converted amounts (≈) assume the structure as drawn.

Columns and labels:
[1] = system: C. albicans ATCC 90028; experiment: Antifungal activity: MIC/MFC, disc-diffusion; format: cell-based, Candida albicans; conditions: Candida albicans, ATCC90028; read-out: MIC
Protocol: (§1) Direct antimicrobial activity was determined against the following standard strains: (1) Gram-positive cocci: methicillin-sensitive Staphylococcus aureus ATCC 6538P (MSSA), methicillin-resistant S. aureus subsp. aureus ATCC 43300 (MRSA), S. epidermidis ATCC 12228, Enterococcus faecium ATCC 6057, E. faecalis ATCC 29212, Bacillus subtilis ATCC 6633; (2) Gram-negative bacteria from Enterobacteriales order: Klebsiella pneumoniae ATCC 13883, Escherichia coli ATCC 25922, Enterobacter cloacae DSM 6234, Proteus mirabilis ATCC 12453, Serratia marcescens ATCC 13880; (3) Gram-negative non-fermentative rods: Acinetobacter baumannii ATCC 19606, Pseudomonas aeruginosa ATCC 27853, Stenotrophomonas maltophilia ATCC 12714, S. maltophilia ATCC 13637, Burkholderia cepacia ATCC 25416, Bordetella bronchiseptica ATCC 4617; (4) yeasts: Candida albicans ATCC 90028, C. krusei ATCC 6258, C. parapsilosis ATCC 22019, C. tropicalis (Castellani) Berkhout ATCC 750, C. tropicalis IBA 171, C. guilliermondii IBA 155, and Saccharomyces cerevisiae ATCC 9763. Moreover, 5 clinical strains of methicillin-resistant S. aureus were also included: NMI 664 K, NMI 1576 K, NMI 1712 K, NMI 1991 K, and NMI 2541 K. All strains were stored at −80 °C. Prior to testing, each bacterial strain was subcultured twice on tryptic soy agar TSA (bioMerieux) medium and yeast strains on Sabouraud dextrose agar (bioMerieux) for 24–48 h at 30 °C to ensure viability. The antimicrobial activity was evaluated as previously described[26] by the disc-diffusion method and the MIC determination assays according to the EUCAST (ref. [71] and [72]) and CLSI (ref. [53] and [73]) recommendations. Assessment of bactericidal (MBC) and fungicidal (MFC) activities was performed according to the CLSI recommendations.[54,74] The following reference agents were used: fluconazole (in the case of fungi), linezolid (for Gram-positive bacteria), and nitrofurantoin (for Gram-negative rods). The new benzosiloxaboroles were dissolved in DMSO (Sigma).

[2] = system: P. aeruginosa ATCC 27853; experiment: Antibacterial activity: MIC/MBC, MIC with PAβN, disc-diffusion; format: cell-based; conditions: Pseudomonas aeruginosa, ATCC27853, P. aeruginosa ATCC 27853; for MIC: read-out: MIC
Protocol: as §1, with “The following reference agents were used: fluconazole (in the case of fungi), linezolid (for Gram-positive bacteria), and nitrofurantoin (for Gram-negative rods).” left out
(§2) Considering that the MDR efflux pumps often contribute to Gram-negative rod resistance, the MIC values of studied agents, with or without the pump inhibitor, PAβN (20 μg mL^−1) (Sigma), were determined.[75] The MIC was determined using Mueller–Hinton II broth medium (MHB) (Becton Dickinson) by the broth microdilution method, according to the CLSI guideliness.[53] To minimize the influence of PAβN on the destabilization of bacterial cell covers, the tests were conducted in the presence of 1 mM MgSO4 (Sigma).[76] At least a 4-fold reduction in the MIC value after the addition of PAβN was considered significant.[56,77]

[3] = system: S. aureus ATCC 6538P; experiment: Antibacterial activity: MIC/MBC determination and disc-diffusion; format: cell-based, Staphylococcus aureus; conditions: S. aureus ATCC 6538P; for diameter of inhibition zone: disc-diffusion, — = zone not observed; for MIC / MBC: Staphylococcus aureus, ATCC6538P; for MIC: read-out: MIC; for MBC: read-out: MBC (first MBC where Eagle effect)
Protocol: as §1

[4] = system: B. cepacia ATCC 25416; experiment: Antibacterial activity: MIC/MBC, disc-diffusion; format: cell-based, Burkholderia cepacia; conditions: Burkholderia cepacia, ATCC25416; B. cepacia ATCC 25416; read-out: MIC
Protocol: as §1, with “The following reference agents were used: fluconazole (in the case of fungi), linezolid (for Gram-positive bacteria), and nitrofurantoin (for Gram-negative rods).” left out
as §2

[5] = system: E. cloacae DSM 6234; experiment: Antibacterial activity: MIC/MBC, MIC with PAβN, disc-diffusion; format: cell-based, Enterobacter cloacae; conditions: E. cloacae DSM 6234; for MIC: Enterobacter cloacae, DSM6234, read-out: MIC; for -fold reduction of MIC in the presence of PAβN: PAβN 20 μg mL^−1, MHB + 1 mM MgSO4
Protocol: as §1, with “The following reference agents were used: fluconazole (in the case of fungi), linezolid (for Gram-positive bacteria), and nitrofurantoin (for Gram-negative rods).” left out
as §2

[6] = system: S. cerevisiae ATCC 9763; experiment: Antifungal activity: MIC/MFC, disc-diffusion; format: cell-based, Saccharomyces cerevisiae; conditions: Saccharomyces cerevisiae, ATCC9763; read-out: MIC
Protocol: as §1

[7] = system: C. parapsilosis ATCC 22019; experiment: Antifungal activity: MIC/MFC, disc-diffusion; format: cell-based; conditions: Lodderomyces parapsilosis, ATCC22019; read-out: MIC
Protocol: as §1

[8] = system: C. tropicalis IBA 171; experiment: Antifungal activity: MIC/MFC, disc-diffusion; format: cell-based; conditions: Candida tropicalis, IBA171; read-out: MIC
Protocol: as §1

[9] = system: C. tropicalis ATCC 750; experiment: Antifungal activity: MIC/MFC, disc-diffusion; format: cell-based; conditions: Candida tropicalis, ATCC750; read-out: MIC
Protocol: as §1

[10] = system: C. guilliermondii IBA 155; experiment: Antifungal activity: MIC/MFC, disc-diffusion; format: cell-based; conditions: Meyerozyma guilliermondii, IBA155; read-out: MIC
Protocol: as §1

[11] = system: B. bronchiseptica ATCC 4617; experiment: Antibacterial activity: MIC/MBC, disc-diffusion; format: cell-based, Bordetella bronchiseptica; conditions: B. bronchiseptica ATCC 4617; for MIC / MBC: Bordetella bronchiseptica, ATCC4617; for MIC: read-out: MIC; for diameter of inhibition zone: (-) = zone not observed, paper discs 9 mm
Protocol: as §1, with “The following reference agents were used: fluconazole (in the case of fungi), linezolid (for Gram-positive bacteria), and nitrofurantoin (for Gram-negative rods).” left out
as §2

| SMILES | MIC [1] | MIC [2] | diameter of inhibition zone [3] | MIC [3] | MIC [4] | MIC [5] | MIC [6] | MIC [7] | MIC [8] | MIC [9] | MIC [10] | MIC [11] | MBC [3] | -fold reduction of MIC in the presence of PAβN [5] | diameter of inhibition zone [11] | MBC [11] | MBC [2] |
| --- | --- | --- | --- | --- | --- | --- | --- | --- | --- | --- | --- | --- | --- | --- | --- | --- | --- |
| C[Si]1(C)OB(O)c2cc(F)c(SCCC(N)=O)c(F)c21 [Compound 7, 3-((5,7-Difluoro-3-hydroxy-1,1-dimethyl-1,3-dihydrobenzo[c][1,2,5]oxasilaborol-6-yl)thio)propanamide] | > 400 µg/mL | > 400 µg/mL | 24 mm | 50 µg/mL (≈ 158 µM) | > 400 µg/mL | > 400 µg/mL | > 400 µg/mL | > 400 µg/mL | > 400 µg/mL | > 400 µg/mL | > 400 µg/mL | > 400 µg/mL |  |  |  |  |  |
| C[Si]1(C)OB(O)c2cc(F)c(SCCC(=O)N3CCOCC3)c(F)c21 [Compound 8, 3-((5,7-Difluoro-3-hydroxy-1,1-dimethyl-1,3-dihydrobenzo[c][1,2,5]oxasilaborol-6-yl)thio)-1-morpholinopropan-1-one] | > 400 µg/mL | > 400 µg/mL | 25 mm | 50 µg/mL (≈ 129 µM) | > 400 µg/mL | > 400 µg/mL | > 400 µg/mL | > 400 µg/mL | > 400 µg/mL | > 400 µg/mL | > 400 µg/mL | > 400 µg/mL |  |  |  |  |  |
| C[Si]1(C)OB(O)c2cc(F)c(SCCC(=O)Nc3ncccn3)c(F)c21 [Compound 9, 3-((5,7-Difluoro-3-hydroxy-1,1-dimethyl-1,3-dihydrobenzo[c][1,2,5]oxasilaborol-6-yl)thio)-N-(pyrimidin-2-yl)propanamide] | > 400 µg/mL | > 400 µg/mL | 17 mm | 25 µg/mL (≈ 63.2 µM) | > 400 µg/mL | > 400 µg/mL | > 400 µg/mL | > 400 µg/mL | > 400 µg/mL | > 400 µg/mL | > 400 µg/mL | > 400 µg/mL | 400 µg/mL (≈ 1010 µM) |  |  |  |  |
| C[Si]1(C)OB(O)c2cc(F)c(SCCC(=O)Nc3cnccn3)c(F)c21 [Compound 10, 3-((5,7-Difluoro-3-hydroxy-1,1-dimethyl-1,3-dihydrobenzo[c][1,2,5]oxasilaborol-6-yl)thio)-N-(pyrazin-2-yl)propanamide] | > 400 µg/mL | > 400 µg/mL | 24 mm | 50 µg/mL (≈ 126 µM) | > 400 µg/mL | > 400 µg/mL | > 400 µg/mL | > 400 µg/mL | > 400 µg/mL | > 400 µg/mL | > 400 µg/mL | > 400 µg/mL | 400 µg/mL (≈ 1010 µM) |  |  |  |  |
| Cc1cc(NC(=O)CCSc2c(F)cc3c(c2F)[Si](C)(C)OB3O)no1 [Compound 11, 3-((5,7-Difluoro-3-hydroxy-1,1-dimethyl-1,3-dihydrobenzo[c][1,2,5]oxasilaborol-6-yl)thio)-N-(5-methylisoxazol-3-yl)propanamide] | > 400 µg/mL | > 400 µg/mL | 21 mm | 25 µg/mL (≈ 62.8 µM) | > 400 µg/mL | > 400 µg/mL | > 400 µg/mL | > 400 µg/mL | > 400 µg/mL | > 400 µg/mL | > 400 µg/mL | > 400 µg/mL | 400 µg/mL (≈ 1000 µM) |  |  |  |  |
| C[Si]1(C)OB(O)c2cc(F)c(SC3CC(=O)NC3=O)c(F)c21 (stereo not drawn) [Compound 12, 3-((5,7-Difluoro-3-hydroxy-1,1-dimethyl-1,3-dihydrobenzo[c][1,2,5]oxasilaborol-6-yl)thio)pyrrolidine-2,5-dione] | > 400 µg/mL | > 400 µg/mL | 20 mm | 6.25 µg/mL (≈ 18.2 µM) | > 400 µg/mL | > 400 µg/mL | > 400 µg/mL | > 400 µg/mL | > 400 µg/mL | > 400 µg/mL | > 400 µg/mL | 12.5 µg/mL (≈ 36.4 µM) | 100 µg/mL (≈ 291 µM) | 8 -fold | 25 mm | 50 µg/mL (≈ 146 µM) |  |
| C[Si]1(C)OB(O)c2ccc(SC3CC(=O)NC3=O)c(F)c21 (stereo not drawn) [Compound 13, 3-((7-Fluoro-3-hydroxy-1,1-dimethyl-1,3-dihydrobenzo[c][1,2,5]oxasilaborol-6-yl)thio)pyrrolidine-2,5-dione] | > 400 µg/mL | 200 µg/mL (≈ 615 µM) | 20 mm | 25 µg/mL (≈ 76.9 µM) | > 400 µg/mL | 400 µg/mL (≈ 1230 µM) | > 400 µg/mL | > 400 µg/mL | > 400 µg/mL | > 400 µg/mL | > 400 µg/mL | 12.5 µg/mL (≈ 38.4 µM) | 200 µg/mL (≈ 615 µM) | 4 -fold | 26 mm | 25 µg/mL (≈ 76.9 µM) | 400 µg/mL (≈ 1230 µM) |
